Assay results published in patent publication US8354498B2, “CD4 mimic peptides and their uses” (Commissariat a l'Energie Atomique, priority 2006, dated 2013).
pEC50: −log10 of the molar value. Read-outs that look alike come from different tables or passages of the source.

Experiments:
Format in all cases: cell-based
HIV-1 Ba-L = assay: Dendritic cells assay: MO-DC/CD4+ T cell co-cultures, replication competent virus; conditions: for pEC50: Human immunodeficiency virus 1, BAL
Procedure: Dendritic cell experiments were preformed with the replication-competent CCR5 co-receptor, using non-syncytium inducing, subtype B HIV-1 strain Ba-L whose infectious titer was determined on cultures of PHA/IL-2 stimulated PBMC.
Monocytes were separated from the buffy-coats of HIV seronegative blood donors by counter-flow elutriation and E-rosetting. They were subsequently differentiated to monocyte-derived dendritic cells (MO-DC) using GM-CSF and IL-4. […] After 30 minutes, 100 μl of MO-DC were added (4×10^5 cells/ml) and incubated for 2 h (37° C., 5% CO2). Afterwards, cells were washed 3 times and autologous CD4+ T cells were added, in the presence of compound. Co-cultures were incubated for 24 h, after which the cells were washed again (3 times) to remove the compound. Cells were incubated during 14 days of primary culture, during which half of the culture medium was refreshed twice weekly, without compound. At day 14, cultures were washed and PHA/IL-2 activated PBMC were added (2×10^5 cells/cup) to detect any latent or subliminal infection during a supplementary 14 days of secondary culture. Culture supernatants of primary (day 7 and day 14) and secondary (day 28) cultures were analyzed for the presence of HIV p24 Ag by a monoclonal p24 antibody (HuMab-HIVp24; BIOMARIC NV) enzyme-linked immunosorbant assay (ELISA).
Importantly, the replication-competent HIV-1 Ba-L reference strain, was used for these experiments. The virus was shortly pre-incubated with a dilution range of one of the compounds before addition of the MO-DC target cells. The compound remained present during infection and during the first 24 h of the co-culture of the MO-DC with the autologous CD4^+ T cells, but was washed away afterwards.

HIV-1 pseudovirus VI1358 = assay: HIV single cycle pseudovirus assay in GHOST cells; conditions: read-out: antiviral activity EC50
Procedure: (§1) For single-cycle infection experiments, HIV pseudoviruses representative of different HIV-1 subtypes were produced by co-transfection of 2×10^5 HEK293 (American Type Culture Collection) derived cells expressing the SV40 T antigen (HEK293 T), using the calcium phosphate method (ProFection® mammalian transfection system; PROMEGA). To this end, 1 μg of an HIV-1 env expressing vector under control of a CMV promoter, derived from pcDNA4/TO backbone vector (INVITROGEN) and 400 ng of the HIV-1 genomic vector (pNL4-3.Luc R^−E^−; National Institutes of Health AIDS Research and Reference Reagent program; catalogue number 3418), under control of the LTR promoter were used. pNL4-3.Luc R^−E^− contains the whole HIV genome, including a packaging signal, but has a frameshift in the env and vpr genes rendering it non-infectious. Furthermore a luciferase reporter gene replaces the nef gene. After 24 h, the medium was replaced with medium containing 1 mM sodium butyrate (SIGMA-ALDRICH) and the cells were further incubated for an additional 24 h. Afterwards, the supernatant with the pseudovirus was harvested, filtered (Millex 0.45 μm filters, MILLIPORE) and after adding Fetal calf serum (FCS; 10%) stored at −80° C. Pseudoviruses of different HIV-1 subtypes were created, including pseudoviruses derived from the subtype B, CCR5 co-receptor using strains Ba-L and SF162; the subtype B, CXCR4 co-receptor using strains Mn; the subtype C, CCR5 co-receptor using strains VI829, VI1358 and MJ4 and the CRF01_AE, CXCR4 co-receptor using strain CA10-3.
(§2) Fifty microliters of HIV pseudovirus were pre-incubated with 50 μl of a dilution series of a CD4 miniprotein or reference compound. After 15 minutes, 100 μl of GHOST target cells (AIDS REFERENCE AND REAGENT PROGRAM; 1.2×10^5 cells/ml) expressing CD4 and either of the HIV co-receptors CCR5 or CXCR4 were added to the 96-well cups containing the pre-treated pseudovirus. The GHOST cells were lysed 48 h post-infection by addition of the luciferin substrate (SteadyLite HTS, PERKIN ELMER LIFE SCIENCES). The resulting light signal, expressed as relative lights units (RLU), was quantified in a luminometer (Top Count™, CANBERRA-PACKARD).

HIV-1 pseudovirus Ba-L = assay: HIV single cycle pseudovirus assay in GHOST cells; conditions: read-out: antiviral activity EC50
Procedure: as §1, §2

HIV-1 pseudovirus SF162 = assay: HIV single cycle pseudovirus assay in GHOST cells; conditions: read-out: antiviral activity EC50
Procedure: as §1, §2

HIV-1 pseudovirus MJ4 = assay: HIV single cycle pseudovirus assay in GHOST cells; conditions: read-out: antiviral activity EC50
Procedure: as §1, §2

HIV-1 pseudovirus CA10-3 = assay: HIV single cycle pseudovirus assay in GHOST cells; conditions: read-out: antiviral activity EC50
Procedure: as §1, §2

HIV-1 pseudovirus VI829 = assay: HIV single cycle pseudovirus assay in GHOST cells; conditions: read-out: antiviral activity EC50
Procedure: as §1, §2

HIV-1 pseudovirus Mn = assay: HIV single cycle pseudovirus assay in GHOST cells; conditions: read-out: antiviral activity EC50
Procedure: as §1, §2

Structure (SMILES): Cc1cc(C)c(Nc2ccnc(Nc3ccc(C#N)cc3)n2)c(C)c1 [TMC120]
- pEC50 (HIV-1 Ba-L; 168 h, Day 7, read-out: EC50, primary culture, Day 7): 8.52
- pEC50 (HIV-1 Ba-L; 336 h, Day 14, read-out: EC50, primary culture, Day 14): 8.52
- Cmin, secondary culture, Day 28 (minimal concentration blocking infection) (HIV-1 Ba-L; confirmed at Day 28): 100 nM
- pEC50 (HIV-1 pseudovirus VI1358): 9.22
- pEC50 (HIV-1 pseudovirus Ba-L): 8.82
- pEC50 (HIV-1 pseudovirus SF162): 9.05
- pEC50 (HIV-1 pseudovirus MJ4): 8.82
- pEC50 (HIV-1 pseudovirus CA10-3): 8.82
- pEC50 (HIV-1 pseudovirus VI829): 8.92
- pEC50 (HIV-1 pseudovirus Mn): 8.74
